From ChEMBL document CHEMBL1127965, “Synthesis of novel monocyclic squalestatin analogues as potential inhibitors of squalene synthase” (Bioorg Med Chem Lett, 1994) come the findings set out here.

Structures are written as SMILES.

The assay deals with T1, Squalene synthase (Rattus norvegicus, UniProt Q02769).
T1 sequence (Q02769 whole entry): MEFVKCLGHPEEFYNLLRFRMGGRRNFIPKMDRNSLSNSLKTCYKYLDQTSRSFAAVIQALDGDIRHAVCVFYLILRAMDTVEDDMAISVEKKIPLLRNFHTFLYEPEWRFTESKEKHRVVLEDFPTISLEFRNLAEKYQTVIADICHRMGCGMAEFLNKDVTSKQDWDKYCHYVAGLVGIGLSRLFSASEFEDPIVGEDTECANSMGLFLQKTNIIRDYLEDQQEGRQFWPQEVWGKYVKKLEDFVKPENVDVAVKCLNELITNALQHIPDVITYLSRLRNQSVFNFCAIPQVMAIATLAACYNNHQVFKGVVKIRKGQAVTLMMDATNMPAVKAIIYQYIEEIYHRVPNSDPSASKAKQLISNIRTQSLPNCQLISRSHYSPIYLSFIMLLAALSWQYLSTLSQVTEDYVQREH
In words: In vitro inhibitory activity against rat liver squalene synthase.

For the compound `C=C(CCC12CCC(C(=O)O)(O1)C(O)(C(=O)O)C(C(=O)O)O2)[C@@H](OC(C)=O)[C@H](C)Cc1ccccc1` (some centres not stated), the concentration for half-maximal inhibition (IC50) turned out to be 0.057 µM.
As for `O=C(O)C1OC(CCCCCCc2ccccc2)OC(C(=O)O)C1(O)C(=O)O` (configuration not stated), the figure is 8 µM.
